Results published in patent US9550763B2, “Heterocyclic ring and carbocyclic derivative” (Shionogi & Co., Ltd., priority 2012, dated 2017).

These compounds were tested against human P2X3 receptor (Homo sapiens (Human), UniProt P56373) (assay: Evaluation of human P2X3 receptor inhibitory activity (Test Example 1-1, FDSS 3000, 96-well, 50 nM ATP)). Conditions: human P2X3 receptor in C6BU-1 cells; Test Example 1-1 (compounds I-001 to I-300).
Format: cell-based
Protocol: Stably expressing cell line (C6BU-1 cell transfected with human P2X3 receptor gene (GenBank accession number Y07683) was used. The cells were seeded in a 96-well microtiter plate at a concentration of 8000 cells/well and cultured in the medium (7.0% fetal bovine serum, 7.0% horse serum, 1% antibiotic and antifungal in DMEM) for one day at 37° C. under 5% carbon dioxide atmosphere. The medium was replaced with 4 μM Fluo-3-AM solution (20 mM HEPES, 137 mM NaCl, 5.27 mM KCl, 0.9 mM MgCl2, 1.26 mM CaCl2, 5.6 mM D-glucose, 2.5 mM probenecid, 1% BSA, and 0.08% Pluronic F-127, pH 7.5) and incubated at 37° C. under 5% dioxide carbon atmosphere for one hour. The plate was washed with washing buffer (20 mM HEPES, 137 mM NaCl, 5.27 mM KCl, 0.9 mM MgCl2, 1.26 mM CaCl2, 5.6 mM D-glucose, 2.5 mM probenecid, pH7.5), and each well was added with 40 μL of this buffer. The plate was placed in High-Throughput Screening System. FDSS 3000 (Hamamatsu Photonics K.K.). Measurement of fluorescence intensity by FDSS 3000 was started, and 40 μL of DMSO solutions containing different concentrations of the test compound as prepared by dilution with dilution buffer (20 mM HEPES, 137 mM NaCl, 5.27 mM KCl, 0.9 mM MgCl2, 1.26 mM CaCl2, 5.68 mM D-glucose, 2.5 mM probenecid, 0.1% Pluronic F-127, pH7.5) were dispensed to each well through the built-in automatic dispenser. Five minutes after, 50 nM ATP solution (50 μL) prepared by dilution with the dilution buffer was dispensed through the built-in automatic dispenser, and the measurement of fluorescence intensity was continued for 4 min. For each well, the specific maximum fluorescence intensity was calculated as the ratio of the maximum fluorescence intensity after addition of the ATP solution to the fluorescence intensity at the starting of the measurement. The 50% inhibitory concentration (IC50) was calculated under the assumption that the specific maximum fluorescence intensity without test compound is 0% inhibition and that the specific maximum fluorescence intensity when the dilution buffer was added in place of ATP solution is 100% inhibition, to evaluate the inhibitory activity of the test compound. FDSS software (Hamamatsu Photonics K.K.) was used for calculation of the specific maximum fluorescence intensity. IC50 was calculated using Microsoft Excel (Microsoft Corporation) and XLfit (idbs Ltd.)
The data of the compounds I-001 to I-300 are the results by the method mentioned in Test Example 1-1, and the data of the compounds I-301 to I-483 are the results by the method mentioned in Test Example 1-2.

human P2X3 receptor, sequence (P56373 whole entry): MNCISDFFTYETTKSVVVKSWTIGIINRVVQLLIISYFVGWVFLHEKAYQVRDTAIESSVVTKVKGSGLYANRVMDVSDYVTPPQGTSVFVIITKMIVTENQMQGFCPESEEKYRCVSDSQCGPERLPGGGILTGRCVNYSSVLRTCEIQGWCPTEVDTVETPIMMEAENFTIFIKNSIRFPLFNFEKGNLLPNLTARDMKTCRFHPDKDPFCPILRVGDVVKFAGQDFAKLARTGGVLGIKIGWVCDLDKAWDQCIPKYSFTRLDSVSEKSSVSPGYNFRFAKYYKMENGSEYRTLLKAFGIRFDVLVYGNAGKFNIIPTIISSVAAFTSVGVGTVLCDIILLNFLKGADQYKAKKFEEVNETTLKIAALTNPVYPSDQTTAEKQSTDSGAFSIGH

Structure (SMILES) | IC50
CCc1c[nH]/c(=N\c2ccc(Oc3cccc(C#N)n3)c(C)c2)n(Cc2ccc(Cl)cc2)c1=O [Compound I-130] | 32 nM
CCn1c(=O)cc(Nc2ccc(Oc3cccc(C(=O)O)c3)c(C)n2)n(Cc2ccc(Cl)cc2)c1=O [Compound I-258] | 27 nM
O=C(Nc1c[nH]/c(=N\c2ccc(Oc3ccon3)cc2)n(Cc2ccc(Cl)cc2)c1=O)C1CCOC1 (stereo not shown) [Compound I-212] | 11 nM
CCn1c(=O)cc(Nc2ccc(Oc3cccc(C#N)n3)cn2)n(Cc2ccc(Cl)cc2)c1=O [Compound I-124] | 19 nM
O=c1cc[nH]/c(=N\c2ccc(Oc3ccc(F)cn3)cc2)n1Cc1ccc(Cl)cc1 [Compound I-152] | 291 nM
CCc1oc2ccc(Nc3ncc(C(=O)NCCO)c(=O)n3Cc3ccc(Cl)cc3)cc2c1C [Compound I-032] | 34 nM
CCCn1c(=O)cc(Nc2ccc(Oc3cccc(C(=O)O)n3)cn2)n(Cc2ccc(Cl)cc2)c1=O [Compound I-172] | 16 nM
CN(C)C(=O)c1c[nH]/c(=N\c2ccc(Oc3cccc(C#N)n3)cc2)n(Cc2ccc(Cl)cc2)c1=O [Compound I-209] | 102 nM
C[C@@H](Cn1c(=O)cc(Nc2ccc(Oc3ncccc3F)cc2)n(Cc2ccc(Cl)cc2)c1=O)C(=O)O [Compound I-119] | 8 nM
CCC(=O)Nc1c[nH]/c(=N\c2ccc(Oc3ccnc(CO)c3)cc2)n(Cc2ccc(Cl)cc2)c1=O [Compound I-163] | 21 nM
O=c1c(NC(=O)[C@H]2C[C@H](F)C2)c[nH]/c(=N\c2ccc(Oc3ccon3)cc2)n1Cc1ccc(Cl)cc1 [Compound I-218] | 17 nM
CCn1c(=O)cc(Nc2ccc(Oc3cncc(C(N)=O)c3)cc2)n(Cc2ccc(Cl)cc2)c1=O [Compound I-001] | 11 nM
Cc1ccc(Oc2ccc(/N=c3\[nH]cc(C(N)=O)c(=O)n3Cc3ccc(Cl)cc3)cc2)nn1 [Compound I-180] | 21 nM
N#Cc1cc(Oc2ccc(Nc3nc(=O)c(C(=O)NC4CCOCC4)cn3Cc3ccc(Cl)cc3)cc2)ccn1 [Compound I-227] | 6 nM
CCCn1c(=O)cc(Nc2ccc(Oc3cccc(C(=O)O)c3)c(C)n2)n(Cc2ccc(Cl)cc2)c1=O [Compound I-259] | 16 nM
CCn1c(=O)cc(Nc2ccc(Oc3ccc(C(=O)OC)cc3)nc2)n(Cc2ccc(Cl)cc2)c1=O [Compound I-061] | 65 nM
CCn1c(=O)cc(Nc2ccc(Oc3ccc(C(=O)OC)nn3)cc2)n(Cc2ccc(Cl)cc2)c1=O [Compound I-173] | 4 nM
O=C(Nc1c[nH]/c(=N\c2ccc(Oc3ccon3)cc2)n(Cc2ccc(Cl)cc2)c1=O)C1CC(F)(F)C1 [Compound I-211] | 15 nM
N#Cc1ccc(Oc2ccc(Nc3nc(=O)c(C(=O)NC4CCOCC4)cn3Cc3ccc(Cl)cc3)cc2)nc1 [Compound I-228] | 10 nM
O=C(O)c1cccc(Oc2ccc(Nc3cc(=O)[nH]c(=O)n3Cc3ccc(Cl)cc3)cc2)n1 [Compound I-067] | 34 nM
CCc1oc2ccc(/N=c3\[nH]cc(CC(C)(C)O)c(=O)n3Cc3ccc(Cl)cc3)cc2c1C [Compound I-103] | 144 nM
CCn1c(=O)cc(Nc2ccc(Oc3cccc(C#N)n3)cc2)n(Cc2ccc(Cl)cc2)c1=O [Compound I-009] | 5 nM
CCOC(=O)c1c[nH]/c(=N\c2ccc(Oc3ncccc3F)cc2)n(Cc2ccc(Cl)cc2)c1=O [Compound I-107] | 29 nM
CCOC(=O)c1c[nH]/c(=N\c2ccc(Oc3cccc(F)n3)c(C)c2)n(Cc2ccc(Cl)cc2)c1=O [Compound I-112] | 24 nM
CCOC(=O)c1c[nH]/c(=N\c2ccc(Oc3cccc(F)n3)cc2)n(Cc2ccc(Cl)cc2)c1=O [Compound I-018] | 13 nM
CCC(=O)Nc1c[nH]/c(=N\c2ccc(Oc3cccc(F)n3)cc2)n(Cc2ccc(Cl)cc2)c1=O [Compound I-090] | 11 nM
Cc1ccc(Oc2ccc(Nc3nc(=O)c(C(=O)NCC(=O)N(C)C)cn3Cc3ccc(Cl)cc3)cc2)nn1 [Compound I-298] | 23 nM
CCn1c(=O)cc(Nc2ccc(Oc3cccc(C(=O)O)n3)c(C)c2)n(Cc2ccc(Cl)cc2)c1=O [Compound I-028] | 1 nM
